Reference: US11857519B2, “Compounds and methods for the targeted degradation of enhancer of zeste homolog 2 polypeptide” (Arvinas Operations, Inc., priority 2016, dated 2024)

Target: T1, EZH2 (Homo sapiens, UniProt Q15910)
T1 construct: Protocol of the Cellular Assay of Target Protein Degradation (VCaP Cells, ELISA); endogenous in cells; host or cells: VCaP cells
Experiment: Cellular assay of target protein degradation (VCaP cells, ELISA)
Format: cell-based
Conditions: 4 hours, protein degradation range at indicated concentration (relative to DMSO control)
Protocol: Protocol of the Cellular Assay of Target Protein Degradation (VCaP Cells, ELISA).
For detection Cell Signaling PathScan Sandwich ELISA Catalog #12850 Lot 11 was used. VCaP cells were cultured in ATCC DMEM+ATCC FBS and plated 40,000/well 100 μl/well in RPMI P/S with 5% CSS Omega (bovine) serum into a 96 well plate. The cells were grown for a minimum of 3 days, dosed with compounds in 0.1% DMSO (diluted with 5% CSS) and incubated with aspiration for 4 hours. 100 μl of 1× Cell Signaling lysis buffer #9803 (36 mL dH2O+4 mL Cell Signaling lysis buffer) was added. The incubation was placed on cold room shaker for 10 minutes at speed 8-9. 5 μl to 100 μL of Diluent was transferred to ELISA plate (0.15 μg/mL−0.075 μg/mL) and stored at 4° C. overnight on cold room shaker speed 5 (gentle swirl) and then shaken next morning at 37° C. for 30 minutes. The preparation was washed 4×200 μl with ELISA wash buffer and aspirated with eight-channel aspirator. 100 μl/well of target protein detection antibody was added after, which the preparation was covered and shaken at 37° C. for 1 hour. 100 μl TMB was added, and the mixture was shaken for 5 min while under observation. When TMB turned light blue, 100 μl of Stop solution was added, and the mixture was shaken and read at 450 nm. Also read at 562 nm for background subtraction.

T1 sequence (Q15910 whole entry): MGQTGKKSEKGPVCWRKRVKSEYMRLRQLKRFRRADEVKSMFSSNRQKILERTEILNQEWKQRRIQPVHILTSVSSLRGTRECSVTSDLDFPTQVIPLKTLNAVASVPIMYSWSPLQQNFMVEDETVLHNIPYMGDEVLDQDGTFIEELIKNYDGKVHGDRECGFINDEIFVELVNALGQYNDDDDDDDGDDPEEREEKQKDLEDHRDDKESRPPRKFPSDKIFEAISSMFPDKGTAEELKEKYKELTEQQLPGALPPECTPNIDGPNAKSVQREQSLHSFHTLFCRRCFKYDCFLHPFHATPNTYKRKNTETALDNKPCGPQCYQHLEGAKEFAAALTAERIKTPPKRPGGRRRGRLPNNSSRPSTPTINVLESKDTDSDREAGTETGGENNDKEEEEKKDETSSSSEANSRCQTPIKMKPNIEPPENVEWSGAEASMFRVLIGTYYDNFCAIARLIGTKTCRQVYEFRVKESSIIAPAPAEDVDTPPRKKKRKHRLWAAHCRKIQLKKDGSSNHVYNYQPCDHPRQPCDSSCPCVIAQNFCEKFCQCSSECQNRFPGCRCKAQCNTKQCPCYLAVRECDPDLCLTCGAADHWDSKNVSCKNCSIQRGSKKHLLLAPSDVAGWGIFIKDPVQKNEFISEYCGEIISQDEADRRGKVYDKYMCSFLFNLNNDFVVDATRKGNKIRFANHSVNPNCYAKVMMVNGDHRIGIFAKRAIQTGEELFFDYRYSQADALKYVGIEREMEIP
T1 sequence (O75530 whole entry partner): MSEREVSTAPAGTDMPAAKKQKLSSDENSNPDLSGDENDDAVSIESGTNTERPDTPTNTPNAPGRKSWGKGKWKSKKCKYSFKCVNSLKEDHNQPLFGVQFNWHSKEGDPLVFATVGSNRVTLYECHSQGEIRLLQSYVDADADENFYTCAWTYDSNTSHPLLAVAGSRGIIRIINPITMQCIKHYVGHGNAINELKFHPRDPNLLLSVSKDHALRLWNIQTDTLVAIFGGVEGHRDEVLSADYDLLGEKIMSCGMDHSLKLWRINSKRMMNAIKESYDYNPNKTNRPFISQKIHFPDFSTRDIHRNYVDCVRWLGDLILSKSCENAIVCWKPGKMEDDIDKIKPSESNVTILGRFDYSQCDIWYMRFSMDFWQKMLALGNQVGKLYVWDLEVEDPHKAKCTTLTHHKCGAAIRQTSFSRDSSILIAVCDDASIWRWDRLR
T1 sequence (Q15022 whole entry partner): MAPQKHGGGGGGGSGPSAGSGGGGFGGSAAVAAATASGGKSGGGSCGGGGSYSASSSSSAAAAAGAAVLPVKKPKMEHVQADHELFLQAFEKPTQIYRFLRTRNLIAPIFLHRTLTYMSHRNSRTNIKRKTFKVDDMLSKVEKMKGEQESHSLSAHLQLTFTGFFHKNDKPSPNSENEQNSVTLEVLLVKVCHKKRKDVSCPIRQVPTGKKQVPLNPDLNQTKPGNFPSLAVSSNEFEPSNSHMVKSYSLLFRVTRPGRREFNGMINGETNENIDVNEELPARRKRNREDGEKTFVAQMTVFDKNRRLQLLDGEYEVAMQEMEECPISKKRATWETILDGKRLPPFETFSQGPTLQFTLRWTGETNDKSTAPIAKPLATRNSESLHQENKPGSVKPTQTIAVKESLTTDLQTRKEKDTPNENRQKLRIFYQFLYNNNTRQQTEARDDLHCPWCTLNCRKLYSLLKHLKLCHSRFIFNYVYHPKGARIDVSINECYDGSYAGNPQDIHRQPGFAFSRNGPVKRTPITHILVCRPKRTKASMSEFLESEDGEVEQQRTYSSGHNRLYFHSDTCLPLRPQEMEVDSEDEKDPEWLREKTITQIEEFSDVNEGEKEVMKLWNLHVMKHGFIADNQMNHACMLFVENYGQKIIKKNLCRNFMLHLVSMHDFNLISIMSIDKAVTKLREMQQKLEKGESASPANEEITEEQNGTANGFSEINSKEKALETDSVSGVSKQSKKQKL

Compound	percent target protein degradation class
CCN(c1cc(-c2ccc(OCCOCCOCCOc3ccc(CCN4CC[C@@H]5CCN(C(=O)[C@@H](NC(=O)[C@H](C)NC)C6CCCCC6)[C@@H]5C4)cc3)cc2)cc(C(=O)NCc2c(C)cc(C)[nH]c2=O)c1C)C1CCOCC1 (racemic) [Compound 26, 5-[4-(2-{2-[2-(4-{2-[(3aR,7aS)-1-[(2S)-2-cyclohexyl-2-[(2S)-2-(methylamino)propanamido]acetyl]-octahydro-1H-pyrrolo[2,3-c]pyridin-6-yl]ethyl}phenoxy)ethoxy]ethoxy}ethoxy)phenyl]-N-[(4,6-dimethyl-2-oxo-1,2-dihydropyridin-3-yl)methyl]-3-[ethyl(oxan-4-yl)amino]-2-methylbenzamide]	B (B = degradation between 30% and 60%)
CCN(c1cc(-c2ccc(OCCOCCOCCOCCOCCOc3ccc(CCN4CC[C@@H]5CCN(C(=O)[C@@H](NC(=O)[C@H](C)NC)C6CCCCC6)[C@@H]5C4)cc3)cc2)cc(C(=O)NCc2c(C)cc(C)[nH]c2=O)c1C)C1CCOCC1 (racemic) [Compound 29, 5-(4-{[1-(4-{2-[(3aR,7aS)-1-[(2S)-2-cyclohexyl-2-[(2S)-2-(methylamino)propanamido]acetyl]-octahydro-1H-pyrrolo[2,3-c]pyridin-6-yl]ethyl]phenyl)-1,4,7,10,13-pentaoxapentadecan-15-yl]oxy}phenyl)-N-[(4,6-dimethyl-2-oxo-1,2-dihydropyridin-3-yl)methyl]-3-[ethyl(oxan-4-yl)amino]-2-methylbenzamide]	B (B = degradation between 30% and 60%)
Cc1cc(C)c(CNC(=O)c2cc(-c3ccc(CN4CCN(CCOCC(=O)N[C@H](C(=O)N5C[C@H](O)C[C@H]5C(=O)NCc5ccc(-c6scnc6C)cc5)C(C)(C)C)CC4)cc3)cc3c2ccn3C2CCCC2)c(=O)[nH]1 [Compound 1, 1-cyclopentyl-N-[(4,6-dimethyl-2-oxo-1,2-dihydropyridin-3-yl)methyl]-6-[4-({4-[2-({[(2S)-1-[(2S,4R)-4-hydroxy-2-({[4-(4-methyl-1,3-thiazol-5-yl)phenyl]methyl}carbamoyl)pyrrolidin-1-yl]-3,3-dimethyl-1-oxobutan-2-yl]carbamoyl}methoxy)ethyl]piperazin-1-yl}methyl)phenyl]-1H-indole-4-carboxamide]	B (B = degradation between 30% and 60%)
Cc1cc(C)c(CNC(=O)c2cc(-c3ccc(CN4CCN(CCOCCOCC(=O)N[C@H](C(=O)N5C[C@H](O)C[C@H]5C(=O)NCc5ccc(-c6scnc6C)cc5)C(C)(C)C)CC4)cc3)cc3c2ccn3C2CCCC2)c(=O)[nH]1 [Compound 2, 1-cyclopentyl-N-[(4,6-dimethyl-2-oxo-1,2-dihydropyridin-3-yl)methyl]-6-{4-[(4-{2-[2-({[(2S)-1-[(2S,4R)-4-hydroxy-2-({[4-(4-methyl-1,3-thiazol-5-yl)phenyl]methyl}carbamoyl)pyrrolidin-1-yl]-3,3-dimethyl-1-oxobutan-2-yl]carbamoyl}methoxy)ethoxy]ethyl)piperazin-1-yl)methyl]phenyl}-1H-indole-4-carboxamide]	B (B = degradation between 30% and 60%)
Cc1cc(C)c(CNC(=O)c2cc(-c3ccc(CN4CCN(CCOCCCCOCC(=O)N[C@H](C(=O)N5C[C@H](O)C[C@H]5C(=O)NCc5ccc(-c6scnc6C)cc5)C(C)(C)C)CC4)cc3)cc3c2ccn3C2CCCC2)c(=O)[nH]1 [Compound 3, 1-cyclopentyl-N-[(4,6-dimethyl-2-oxo-1,2-dihydropyridin-3-yl)methyl]-6-{4-[(4-{2-[4-({[(2S)-1-[(2S,4R)-4-hydroxy-2-({[4-(4-methyl-1,3-thiazol-5-yl)phenyl]methyl}carbamoyl)pyrrolidin-1-yl]-3,3-dimethyl-1-oxobutan-2-yl]carbamoyl}methoxy)butoxy]ethyl}piperazin-1-yl)methyl]phenyl}-1H-indole-4-carboxamide]	B (B = degradation between 30% and 60%)
Cc1cc(C)c(CNC(=O)c2cc(-c3ccc(CN4CCN(CCOCCCOCCCOCC(=O)N[C@H](C(=O)N5C[C@H](O)C[C@H]5C(=O)NCc5ccc(-c6scnc6C)cc5)C(C)(C)C)CC4)cc3)cc3c2ccn3C2CCCC2)c(=O)[nH]1 [Compound 4, 1-cyclopentyl-N-[(4,6-dimethyl-2-oxo-1,2-dihydropyridin-3-yl)methyl]-6-(4-{[4-(2-{3-[3-({[(2S)-1-[(2S,4R)-4-hydroxy-2-({[4(4-methyl-1,3-thiazol-5-yl)phenyl]methyl}carbamoyl)pyrrolidin-1-yl]-3,3-dimethyl-1-oxobutan-2-yl]carbamoyl}methoxy)propoxy]propoxy}ethyl)piperazin-1-yl]methyl}phenyl)-1H-indole-4-carboxamide]	B (B = degradation between 30% and 60%)
Cc1cc(C)c(CNC(=O)c2cc(-c3ccc(CN4CCN(CCOCCCCOCCCCOCC(=O)N[C@H](C(=O)N5C[C@H](O)C[C@H]5C(=O)NCc5ccc(-c6scnc6C)cc5)C(C)(C)C)CC4)cc3)cc3c2ccn3C2CCCC2)c(=O)[nH]1 [Compound 5, 1-cyclopentyl-N-[(4,6-dimethyl-2-oxo-1,2-dihydropyridin-3-yl)methyl]-6-(4-{[4-(2-{4-[4-({[(2S)-1-[(2S,4R)-4-hydroxy-2-({[4-(4-methyl-1,3-thiazol-5-yl)phenyl]methyl}carbamoyl)pyrrolidin-1-yl]-3,3-dimethyl-1-oxobutan-2-yl]carbamoyl}methoxy)butoxy]butoxy}ethyl)piperazin-1-yl]methyl}phenyl)-1H-indole-4-carboxamide]	B (B = degradation between 30% and 60%)
Cc1cc(C)c(CNC(=O)c2cc(-c3ccc(CN4CCN(CCOCCCCCOCCCCCOCC(=O)N[C@H](C(=O)N5C[C@H](O)C[C@H]5C(=O)NCc5ccc(-c6scnc6C)cc5)C(C)(C)C)CC4)cc3)cc3c2ccn3C2CCCC2)c(=O)[nH]1 [Compound 6, 1-cyclopentyl-N-[(4,6-dimethyl-2-oxo-1,2-dihydropyridin-3-yl)methyl]-6-[4-[(4-{2-[(5-{[5-({[(2S)-1-[(2S,4R)-4-hydroxy-2-({[4-(4-methyl-1,3-thiazol-5-yl)phenyl]methyl}carbamoyl)pyrrolidin-1-yl]-3,3-dimethyl-1-oxobutan-2-yl]carbamoyl}methoxy)pentyl]oxy}pentyl)oxy]ethyl}piperazin-1-yl)methyl]phenyl}-1H-indole-4-carboxamide]	B (B = degradation between 30% and 60%)
Cc1cc(C)c(CNC(=O)c2c(C)n(C(C)C3CCN(C(=O)COCCOCCOCCNc4cccc5c4C(=O)N(C4CCC(=O)NC4=O)C5=O)CC3)c3ccccc23)c(=O)[nH]1 (stereo not drawn) [Compound 7, N-[(4,6-dimethyl-2-oxo-1,2-dihydropyridin-3-yl)methyl]-1-[1-(1-{1-[2-(2,6-dioxopiperidin-3-yl)-1,3-dioxo-2,3-dihydro-1H-isoindol-4-yl]-4,7,10-trioxa-1-azadodecanoyl}piperidin-4-yl)ethyl]-2-methyl-1H-indole-3-carboxamide]	B (B = degradation between 30% and 60%)
Cc1cc(C)c(CNC(=O)c2c(C)n(C(C)C3CCN(C(=O)COCCOCCOCC(=O)N[C@H](C(=O)N4C[C@H](O)C[C@H]4C(=O)NCc4ccc(-c5scnc5C)cc4)C(C)(C)C)CC3)c3ccccc23)c(=O)[nH]1 (stereo partly drawn) [Compound 9, N-[(4,6-dimethyl-2-oxo-1,2-dihydropyridin-3-yl)methyl]-1-{1-[1-(2-{2-[2-({[(2S)-1-[(2S,4R)-4-hydroxy-2-({[4-(4-methyl-1,3-thiazol-5-yl)phenyl]methyl}carbamoyl)pyrrolidin-1-yl]-3,3-dimethyl-1-oxobutan-2-yl]carbamoyl}methoxy)ethoxy]ethoxy}acetyl)piperidin-4-yl]ethyl}-2-methyl-1H-indole-3-carboxamide]	B (B = degradation between 30% and 60%)
Cc1cc(C)c(CNC(=O)c2c(C)n(C(C)C3CCN(C(=O)COCCOCCOCCOCCNc4cccc5c4C(=O)N(C4CCC(=O)NC4=O)C5=O)CC3)c3ccccc23)c(=O)[nH]1 (stereo not drawn) [Compound 10, N-[(4,6-dimethyl-2-oxo-1,2-dihydropyridin-3-yl)methyl]-1-[1-(1-{1-[2-(2,6-dioxopiperidin-3-yl)-1,3-dioxo-2,3-dihydro-1H-isoindol-4-yl]-4,7,10,13-tetraoxa-1-azapentadecanoyl}piperidin-4-yl)ethyl]-2-methyl-1H-indole-3-carboxamide]	B (B = degradation between 30% and 60%)
Cc1cc(C)c(CNC(=O)c2c(C)n(C(C)C3CCN(C(=O)COCCOCCOCCOCCOCC(=O)N[C@H](C(=O)N4C[C@H](O)C[C@H]4C(=O)NCc4ccc(-c5scnc5C)cc4)C(C)(C)C)CC3)c3ccccc23)c(=O)[nH]1 (stereo partly drawn) [Compound 11, N-[(4,6-dimethyl-2-oxo-1,2-dihydropyridin-3-yl)methyl]-1-{1-[1-(1-{[(2S)-1-[(2S,4R)-4-hydroxy-2-({[4-(4-methyl-1,3-thiazol-5-yl)phenyl]methyl}carbamoyl)pyrrolidin-1-yl]-3,3-dimethyl-1-oxobutan-2-yl]carbamoyl}-2,5,8,11,14-pentaoxahexadecanoyl)piperidin-4-yl]ethyl}-2-methyl-1H-indole-3-carboxamide]	B (B = degradation between 30% and 60%)
